{"source": "ChEMBL document CHEMBL6120963", "about": "“Discovery of Novel PROTAC SIRT6 Degraders with Potent Efficacy against Hepatocellular Carcinoma” (J Med Chem, 2024)", "key": {"[1]": {"test": "Toxicity in BALB/c nude mouse xenografted with human SK-HEP1 cells assessed as pathological damage in liver at 10 mg/kg treated for 28 to 30 days in presence of sorafenib by H and E staining based analysis", "type": "organism-based", "settings": "in vivo, time 28-30 day"}, "SK-HEP1 [2]": {"tested_on": "SK-HEP1", "test": "Antitumor activity against human SK-HEP1 cells xenografted in BALB/c nude mouse at 10 mg/kg treated for 28 to 30 days relative to control", "type": "functional", "settings": "time 28-30 day"}, "SK-HEP1 [3]": {"tested_on": "SK-HEP1", "test": "Inhibition of colony formation in human SK-HEP1 cells at 5 uM incubated for 10 to 14 days with replacement of medium containing compounds on every 3 days in presence of sorafenib by crystal violet staining based analysis", "type": "functional, cell-based", "settings": "time 10-14 day"}, "SK-HEP1 [4]": {"tested_on": "SK-HEP1", "test": "Downregulation of ANKRD44 expression in human SK-HEP1 cells at 2.5 uM incubated for 36 hrs", "type": "functional, cell-based"}, "[5]": {"target": "T1, Protein cereblon/NAD-dependent protein deacylase sirtuin-6 (Homo sapiens, UniProt Q8N6T7+Q96SW2)", "T1 sequence (Q8N6T7 2-355 limits assumed)": "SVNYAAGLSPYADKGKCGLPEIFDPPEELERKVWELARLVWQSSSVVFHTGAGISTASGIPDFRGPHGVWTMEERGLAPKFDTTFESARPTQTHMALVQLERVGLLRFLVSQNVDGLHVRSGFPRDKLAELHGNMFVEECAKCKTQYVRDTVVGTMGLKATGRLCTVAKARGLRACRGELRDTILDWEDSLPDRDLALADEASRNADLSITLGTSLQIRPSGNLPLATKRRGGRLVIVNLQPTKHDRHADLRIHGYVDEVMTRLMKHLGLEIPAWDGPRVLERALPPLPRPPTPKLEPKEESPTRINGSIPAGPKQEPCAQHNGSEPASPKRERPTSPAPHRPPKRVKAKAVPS", "T1 sequence (Q96SW2 whole entry partner)": "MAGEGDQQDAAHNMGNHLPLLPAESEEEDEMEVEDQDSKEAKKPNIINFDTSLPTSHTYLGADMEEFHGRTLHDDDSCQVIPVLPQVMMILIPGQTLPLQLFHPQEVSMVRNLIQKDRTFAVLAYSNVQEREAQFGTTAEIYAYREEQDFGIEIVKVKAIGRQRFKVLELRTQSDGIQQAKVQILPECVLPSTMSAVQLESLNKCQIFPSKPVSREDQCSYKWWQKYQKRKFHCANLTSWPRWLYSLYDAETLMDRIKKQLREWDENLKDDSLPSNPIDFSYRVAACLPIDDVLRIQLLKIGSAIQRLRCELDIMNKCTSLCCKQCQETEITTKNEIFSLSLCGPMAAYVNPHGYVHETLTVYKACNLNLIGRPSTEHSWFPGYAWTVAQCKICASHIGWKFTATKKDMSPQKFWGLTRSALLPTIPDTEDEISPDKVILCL", "test": "PROTAC activity at CRBN/SIRT6 in human SK-HEP1 cells assessed as induction of SIRT6 degradation at 1 uM pretreated for 36 hrs followed by compound washout measured for 36 hrs by Western blot analysis", "type": "cell-based"}, "SK-HEP1 [6]": {"tested_on": "SK-HEP1", "test": "Effect of SIRT1 mRNA expression in human SK-HEP1 cells at 2.5 uM incubated for 36 hrs by RT-qPCR analysis", "type": "functional, cell-based"}, "[7]": {"test": "Toxicity in BALB/c nude mouse xenografted with human SK-HEP1 cells assessed as pathological damage in kidney at 10 mg/kg treated for 28 to 30 days under irradiation (3 Gy) by H and E staining based analysis", "type": "organism-based", "settings": "in vivo, time 28-30 day"}, "[8]": {"test": "Toxicity in BALB/c nude mouse xenografted with human SK-HEP1 cells assessed as histopathological abnormalities in spleen at 10 mg/kg treated for 28 to 30 days by H and E staining based analysis", "type": "organism-based", "settings": "in vivo, time 28-30 day"}, "SK-HEP1 [9]": {"tested_on": "SK-HEP1", "test": "Effect on H3K56Ac expression in human SK-HEP1 cells at 0.002 to 1 uM incubated for 36 hrs by Western blot analysis", "type": "functional, cell-based", "settings": "dose 0.002-1 µM"}, "[10]": {"target": "T1, Protein cereblon/NAD-dependent protein deacylase sirtuin-6", "test": "PROTAC activity at CRBN/SIRT6 in human SK-HEP1 cells assessed as induction of SIRT6 degradation at 2 uM incubated for 36 hrs by In-Cell ELISA relative to control", "type": "cell-based"}, "[11]": {"test": "Toxicity in BALB/c nude mouse xenografted with human SK-HEP1 cells assessed as histopathological abnormalities in lungs at 10 mg/kg treated for 28 to 30 days in presence of sorafenib by H and E staining based analysis", "type": "organism-based", "settings": "in vivo, time 28-30 day"}, "[12]": {"test": "Toxicity in BALB/c nude mouse xenografted with human SK-HEP1 cells assessed as pathological damage in heart at 10 mg/kg treated for 28 to 30 days in presence of sorafenib by H and E staining based analysis", "type": "organism-based", "settings": "in vivo, time 28-30 day"}, "[13]": {"test": "Toxicity in BALB/c nude mouse xenografted with human SK-HEP1 cells assessed as pathological damage in heart at 10 mg/kg treated for 28 to 30 days by H and E staining based analysis", "type": "organism-based", "settings": "in vivo, time 28-30 day"}, "[14]": {"target": "T1, Protein cereblon/NAD-dependent protein deacylase sirtuin-6", "test": "PROTAC activity at CRBN/SIRT6 in human SK-HEP1 cells assessed as reduction in fluorescence intensity of SIRT6 labeling incubated for about 36 hrs by immunofluorescence based analysis", "type": "cell-based"}, "SK-HEP1 [15]": {"tested_on": "SK-HEP1", "test": "Antitumor activity against human SK-HEP1 cells xenografted in BALB/c nude mouse at 10 mg/kg treated for 28 to 30 days under irradiation (3 Gy) (reference value: 38.4 %)", "type": "functional", "settings": "time 28-30 day"}, "[16]": {"target": "T1, Protein cereblon/NAD-dependent protein deacylase sirtuin-6", "test": "PROTAC activity at CRBN/SIRT6 in human SK-HEP1 cells assessed as impairment in CHD4 foci formation by immunofluorescence based analysis", "type": "cell-based"}, "SK-HEP1 [17]": {"tested_on": "SK-HEP1", "test": "Effect of GBX2 mRNA expression in human SK-HEP1 cells at 2.5 uM incubated for 36 hrs by RNA sequencing analysis", "type": "functional, cell-based"}, "[18]": {"target": "T1, Protein cereblon/NAD-dependent protein deacylase sirtuin-6", "test": "PROTAC activity at CRBN/SIRT6 in human Huh-7 cells assessed as induction of SIRT6 degradation upto 10 uM incubated for 36 hrs by Western blot analysis relative to control", "type": "cell-based"}, "[19]": {"target": "T1, Protein cereblon/NAD-dependent protein deacylase sirtuin-6", "test": "PROTAC activity at CRBN/SIRT6 in human SK-HEP1 cells assessed as reduction in number of SIRT6 foci incubated for about 36 hrs by immunofluorescence based analysis", "type": "cell-based", "settings": "dose <= 5.0 µM"}, "SK-HEP1 [20]": {"tested_on": "SK-HEP1", "test": "Effect of SIRT7 mRNA expression in human SK-HEP1 cells at 2.5 uM incubated for 36 hrs by RT-qPCR analysis", "type": "functional, cell-based"}, "SK-HEP1 [21]": {"tested_on": "SK-HEP1", "test": "Downregulation of FBXO44 expression in human SK-HEP1 cells at 2.5 uM incubated for 36 hrs in presence of MLN4924", "type": "functional, cell-based"}, "[22]": {"target": "T1, Protein cereblon/NAD-dependent protein deacylase sirtuin-6", "test": "PROTAC activity at CRBN/SIRT6 in human SK-HEP1 cells assessed as hook effect upto 5 uM incubated for 36 hrs by Western blot analysis", "type": "cell-based"}, "[23]": {"test": "Toxicity in BALB/c nude mouse xenografted with human SK-HEP1 cells assessed as histopathological abnormalities in heart at 10 mg/kg treated for 28 to 30 days under irradiation (3 Gy) by H and E staining based analysis", "type": "organism-based", "settings": "in vivo, time 28-30 day"}, "[24]": {"target": "T1, Protein cereblon/NAD-dependent protein deacylase sirtuin-6", "test": "In vivo PROTAC activity of CRBN/SIRT6 in human SK-HEP1 cells xenografted in BALB/c nude mouse assessed as induction of SIRT6 degradation at 10 mg/kg treated for 28 to 30 days", "type": "functional, organism-based", "settings": "time 28-30 day"}, "[25]": {"target": "T1, Protein cereblon/NAD-dependent protein deacylase sirtuin-6", "test": "PROTAC activity at CRBN/SIRT6 in human SK-HEP1 cells assessed as induction of SIRT6 degradation at 200 nM incubated for 36 hrs by In-Cell ELISA relative to control", "type": "cell-based"}, "[26]": {"test": "Toxicity in BALB/c nude mouse xenografted with human SK-HEP1 cells assessed as pathological damage in liver at 10 mg/kg treated for 28 to 30 days by H and E staining based analysis", "type": "organism-based", "settings": "in vivo, time 28-30 day"}, "[27]": {"test": "Toxicity in BALB/c nude mouse xenografted with human SK-HEP1 cells assessed as pathological damage in spleen at 10 mg/kg treated for 28 to 30 days in presence of sorafenib by H and E staining based analysis", "type": "organism-based", "settings": "in vivo, time 28-30 day"}, "[28]": {"target": "T1, Protein cereblon/NAD-dependent protein deacylase sirtuin-6", "test": "PROTAC activity at CRBN/SIRT6 in human Huh-7 cells assessed as hook effect at 5 uM incubated for 36 hrs by Western blot analysis", "type": "cell-based"}, "[29]": {"test": "Toxicity in BALB/c nude mouse xenografted with human SK-HEP1 cells assessed as histopathological abnormalities in lungs at 10 mg/kg treated for 28 to 30 days by H and E staining based analysis", "type": "organism-based", "settings": "in vivo, time 28-30 day"}, "[30]": {"target": "T1, Protein cereblon/NAD-dependent protein deacylase sirtuin-6", "test": "PROTAC activity at CRBN/SIRT6 in human SK-HEP1 cells assessed as disruption of CHD4 recruitment to DSB sites at 2.5 uM incubated for 36 hrs followed by irradiation (10 Gy) treatment for 4 hrs by Western blot analysis", "type": "cell-based", "settings": "time 40.0 hrs"}, "SK-HEP1 [31]": {"tested_on": "SK-HEP1", "test": "Inhibition of colony formation in human SK-HEP1 cells at 5 uM incubated for 10 to 14 days with replacement of medium containing compounds on every 3 days combined with irradiation (3 Gy) by crystal violet staining based analysis", "type": "functional, cell-based", "settings": "time 10-14 day"}, "[32]": {"target": "T1, Protein cereblon/NAD-dependent protein deacylase sirtuin-6", "test": "PROTAC activity at CRBN/SIRT6 in human Hep3B cells assessed as induction of SIRT6 degradation incubated for 24 hrs by Western blot analysis", "type": "cell-based"}, "SK-HEP1 [33]": {"tested_on": "SK-HEP1", "test": "Downregulation of NAIF1 expression in human SK-HEP1 cells at 2.5 uM incubated for 36 hrs", "type": "functional, cell-based"}}, "note": "Active and inactive are the calls of the source. The rule behind the calls is not given here.", "data": [{"smiles": "Nc1cc(N2CCN(CC3CCN(c4cc5c(cc4F)C(=O)N(C4CCC(=O)NC4=O)C5=O)CC3)CC2)ccc1[N+](=O)[O-]", "note": "(stereo not drawn)", "values": [{"measurement": "Activity", "setting": "[1]", "result": "Non-toxic"}, {"measurement": "T/C", "setting": "SK-HEP1 [2]", "result": 39.6, "unit": "%"}, {"measurement": "inhibition", "setting": "SK-HEP1 [3]", "result": "Not active; Exhibited Weaker Inhibition"}, {"measurement": "Activity", "setting": "SK-HEP1 [4]", "result": "Active"}, {"measurement": "Activity", "setting": "[5]", "result": "Not active; Sirt6 Level Slowly Recovered Within 24 Hrs After Treatment"}, {"measurement": "Activity", "setting": "SK-HEP1 [6]", "result": "No effect"}, {"measurement": "Activity", "setting": "[7]", "result": "Non-toxic"}, {"measurement": "Activity", "setting": "[8]", "result": "Non-toxic"}, {"measurement": "Activity", "setting": "SK-HEP1 [9]", "result": "No effect"}, {"measurement": "Activity", "setting": "[10]", "result": 92.5, "unit": "%"}, {"measurement": "Activity", "setting": "[11]", "result": "Non-toxic"}, {"measurement": "Activity", "setting": "[12]", "result": "Non-toxic"}, {"measurement": "Activity", "setting": "[13]", "result": "Non-toxic"}, {"measurement": "Activity", "setting": "[14]", "result": "Dose-dependent-effect"}, {"measurement": "T/C", "setting": "SK-HEP1 [15]", "result": 26.1, "unit": "%"}, {"measurement": "Activity", "setting": "[16]", "result": "Active"}, {"measurement": "Activity", "setting": "SK-HEP1 [17]", "result": "Active"}, {"measurement": "Emax", "setting": "[18]", "result": 91.8, "unit": "%"}, {"measurement": "Activity", "setting": "[19]", "result": "Dose-dependent-effect"}, {"measurement": "Activity", "setting": "SK-HEP1 [20]", "result": "No effect"}, {"measurement": "Activity", "setting": "SK-HEP1 [21]", "result": "inactive"}, {"measurement": "Activity", "setting": "[22]", "result": "inactive"}, {"measurement": "Activity", "setting": "[23]", "result": "Non-toxic"}, {"measurement": "Activity", "setting": "[24]", "result": "Active"}, {"measurement": "Activity", "setting": "[25]", "result": 67.7, "unit": "%"}, {"measurement": "Activity", "setting": "[26]", "result": "Non-toxic"}, {"measurement": "Activity", "setting": "[27]", "result": "Non-toxic"}, {"measurement": "Activity", "setting": "[28]", "result": "Active"}, {"measurement": "Activity", "setting": "[29]", "result": "Non-toxic"}, {"measurement": "Activity", "setting": "[30]", "result": "Active"}, {"measurement": "inhibition", "setting": "SK-HEP1 [31]", "result": "Not active; Exhibited Weaker Inhibition"}, {"measurement": "Activity", "setting": "[32]", "result": "Active; Reached A Plateau After 36 Hrs Of Treatment"}, {"measurement": "Activity", "setting": "SK-HEP1 [33]", "result": "Active"}]}]}
